{"source": "patent US20250387351A1", "about": "(SpringWorks Therapeutics, Inc, priority 2024, published 2025)", "key": {"[1]": {"assay": "Pharmacokinetic parameters and characteristics of mirdametinib (Table A)", "assay_type": "in vivo, human"}, "[2]": {"test_system": "NF1-associated inoperable plexiform neurofibromas (PNs)", "assay": "Phase 2b trial: response of target PN by BICR volumetric MRI per REiNS criteria", "assay_type": "in vivo, human", "conditions": "for Confirmed Objective Response Rate per REiNS criteria by BICR, n (%): 24-cycle treatment phase, BSA-based BID dose, 3 weeks on/1 week off; for Confirmed Partial Response, n (%): PR = ≥20% reduction in PN volume; for DoR ≥12 months: Kaplan-Meier based, data cut-off September 2023", "experimental": "Participants were screened (assessed for eligibility as described below). […] The median age was 34.5 years (range 18 to 69 years); 85% were white and 64% were female. […] The most commonly reported morbidities were pain (90%) and disfigurement or major deformity (52%).\nThe median age was 10 years (range 2 to 17 years); 66% were white and 54% were female. […] The most commonly reported morbidities were pain (70%) and disfigurement or major deformity (50%).\nStudy treatment was administered orally at a twice daily (BID) dose specified in the table below. Dosing was on a 28-day Cycle (4-week course) with a 3 week on/1 week off schedule. The treatment period will last for up to 24 Cycles followed by a 30-day Safety Follow-Up period.\nA partial response was defined as PN decrease ≥20% compared to baseline using centrally read MRI volumetric analysis.\nThe major efficacy outcome measure was confirmed objective response rate (ORR), defined as the percentage of patients with complete response (disappearance of the target PN) or confirmed partial response (≥20% reduction in PN volume confirmed at a subsequent tumor assessment within 2-6 months during the 24-cycle treatment phase). Responses were assessed by blinded independent central review (BICR) using volumetric magnetic resonance imaging (MRI) analysis per Response Evaluation in Neurofibromatosis and Schwannomatosis (REiNS) criteria. A secondary efficacy objective was to determine the duration of response for patients who achieved a confirmed objective response."}, "[3]": {"conditions": "geometric least squares mean ratio, food effect"}}}
{"smiles": "O=C(NOC[C@H](O)CO)c1ccc(F)c(F)c1Nc1ccc(I)cc1F", "note": "(single isomer, unassigned) [mirdametinib]", "values": [{"measurement": "Tmax [median (range)]", "setting": "[1]; Capsule", "value": "Capsule: 1.08 (0.00-4.17) hours post dose"}, {"measurement": "Excretion: radioactivity in feces", "setting": "[1]; In feces", "value": "In feces: 27%"}, {"measurement": "Excretion: radioactivity in urine", "setting": "[1]; In urine", "value": "In urine: 68%"}, {"measurement": "Excretion: unchanged mirdametinib in urine", "setting": "[1]; In urine", "value": "In urine: 0.7%"}, {"measurement": "Excretion: unchanged mirdametinib in urine and feces", "setting": "[1]; In urine and feces", "value": "In urine and feces: 9%"}, {"measurement": "Tmax [median (range)]", "setting": "[1]; Tablet", "value": "Tablet: 0.83 (0.42-3.02) hours post dose"}, {"measurement": "Food effect [GMR % (90% CI)] AUCinf", "setting": "[1]; [3]", "value": "93% (90%, 96%)"}, {"measurement": "Food effect [GMR % (90% CI)] Cmax", "setting": "[1]; [3]", "value": "57% (54%, 61%)"}, {"measurement": "Time to steady-state", "setting": "[1]; in vivo", "value": "Approximately 6 days"}, {"measurement": "Confirmed Complete Response, n (%)", "setting": "[2]; Adult (N = 58)", "value": "0 n (%)"}, {"measurement": "Confirmed Objective Response Rate per REiNS criteria by BICR, n (%)", "setting": "[2]; Adult (N = 58)", "value": "24 (41) n (%)"}, {"measurement": "Confirmed Partial Response, n (%)", "setting": "[2]; Adult (N = 58)", "value": "24 (41) n (%)"}, {"measurement": "DoR ≥12 months", "setting": "[2]; Adult responders", "value": "18 (75%)"}, {"measurement": "Confirmed Complete Response, n (%)", "setting": "[2]; Pediatric (N = 56)", "value": "0 n (%)"}, {"measurement": "Confirmed Objective Response Rate per REiNS criteria by BICR, n (%)", "setting": "[2]; Pediatric (N = 56)", "value": "29 (52) n (%)"}, {"measurement": "Confirmed Partial Response, n (%)", "setting": "[2]; Pediatric (N = 56)", "value": "29 (52) n (%)"}, {"measurement": "DoR ≥12 months", "setting": "[2]; Pediatric responders", "value": "22 (76%)"}, {"measurement": "median time to onset of response", "setting": "[2]; adult cohort (range: 4.0 months to 19.0 months)", "value": 7.8, "unit": "months"}, {"measurement": "ORR also considering confirmed objective responses after cycle 24", "setting": "[2]; adults (95% CI: 32, 59)", "value": 45, "unit": "%"}, {"measurement": "median time to onset of response", "setting": "[2]; pediatric cohort (range: 4.1 months to 18.8 months)", "value": 7.9, "unit": "months"}, {"measurement": "ORR also considering confirmed objective responses after cycle 24", "setting": "[2]; pediatric patients (95% CI: 40, 67)", "value": 54, "unit": "%"}]}
